Values quoted from earlier work, collected in patent US6368613B1, “Use of fluorocarbons for diagnosis and treatment of articular disorders” (Alliance Pharmaceutical Corp., priority 1996, dated 2002).
Marks after values point to notes of the source that are not given here.

Conditions: in octanol/pH 7.4 isotonic phosphate buffer at 37° C. (marked a)

SMILES | Po/w | Log Po/w
CCCCCC(=O)OCCOCn1cnc2c(=O)[nH]c(N)nc21 [hexanoyl acyclovir] | 8.58 | 
OC(CCN1CCCCC1)(c1ccccc1)C1CCCCC1 (centres unmarked) [trihexyphenidyl] | 1.47 × 10^3 | 3.17^a
CN(C)CCCN1c2ccccc2CCc2ccc(Cl)cc21 [clomipramine] | 3.80 × 10^3 | 3.58^a
CCCCC(=O)OCCOCn1cnc2c(=O)[nH]c(N)nc21 [valeryl acyclovir] | 2.01 | 
CC(CN1c2ccccc2Sc2ccccc21)N(C)C (centres unmarked) [promethazine] | 1.27 × 10^3 | 3.10^a
CCc1cc2c(s1)N(C)C(=O)CN=C2c1ccccc1Cl [clotiazepam] | 3.06 × 10^3 | 3.49^a
CC(C)=CCN1CCC2(C)c3cc(O)ccc3CC1C2C (centres unmarked) [pentazocin] | 150 | 2.18^a

Same assay, conditions: octanol/water partition coefficient

SMILES | Log Po/w | Po/w
CCCCCCCCCCCC(=O)N1CCCCCC1 [C-hexamethylenelauramide, hexamethylenelauramide] | 7.3 | 2.00 × 10^7
c1ccc2cc3ccccc3cc2c1 [C-anthracene, anthracene] | 4.5 | 3.16 × 10^4
CCCCNc1ccc(C(=O)OCCN(C)C)cc1 [tetracaine] | 1.90 | 79.4
COc1ccc(C(=O)CC(=O)c2ccc(C(C)(C)C)cc2)cc1 [H-parsol 1789, parsol 1789] | 6.7 | 5.0 × 10^6
CC/C(=C(/CC)c1ccc(O)cc1)c1ccc(O)cc1 [H -diethylstilbesterol, diethylstilbesterol] | 5.1 | 1.26 × 10^5
O=C1CN=C(c2ccccc2)c2cc([N+](=O)[O-])ccc2N1 [nitrazepam] | 2.21 | 162
FC(F)(F)C(Cl)Br (centres unmarked) [halothane] | 2.30 | 2.00 × 10^2
CC(=O)[C@@]1(O)CC[C@H]2[C@@H]3C[C@H](C)C4=CC(=O)C=C[C@]4(C)[C@@]3(F)[C@@H](O)C[C@@]21C [H -fluorornetholone, fluorornetholone] | 2.1 | 1.26 × 10^2
CCCCC(CC)COC(=O)c1ccc(N(C)C)cc1 (centres unmarked) [C-padimate-o, padimate-o] | 6.6 | 3.98 × 10^6
C[C@]12CC[C@H]3[C@@H](CCC4=CC(=O)CC[C@@]43C)[C@@H]1CC[C@@H]2O [C-testosterone, testosterone] | 3.3 | 2.00 × 10^3
CCCCN1CCCCC1C(=O)Nc1c(C)cccc1C (centres unmarked) [bupivacaine] | 1.45 | 28.2
Clc1cccc(Cl)c1N=C1NCCN1 [H-clonidine, clonidine] | 1.4 | 25.1

Same assay, conditions: pH 7.4

SMILES | Log Po/w
CCCCCC(=O)OCCOCn1cnc2c(=O)[nH]c(N)nc21 [hexanoyl acyclovir] | 0.93^a
CCCCC(=O)OCCOCn1cnc2c(=O)[nH]c(N)nc21 [valeryl acyclovir] | 0.30^a
